# Where two headings read alike, the source gives them in different places. The star is where a group is joined. Biotin = O=C1N[C@H]2[C@H](CS[C@H]2CCCCC(=O)*)N1
# Columns and labels:
# rhuMAb2H7 [1] = details: apparent affinity; Method 2; peptide immobilized on streptavidin chip, 2H7-IgG injected, bivalent analyte model
# Protocol: In the second method, affinities were measured with a Biacore 3000 on a strepavidin chip using either immobilized CD20-35 mer, bis(biotin)) at 685 RU, CD20(51-mer, mono(biotin)) at 1637 RU, or CD20(51-mer, bis(biotin)) at 1037 RU.
# PBS/Tween/azide was used as the running buffer, at 20 μL/minute, with 20 mM HCl for regeneration. 2H7-IgG was injected, and the resulting data was fit to a bivalent analyte model.
# rhuMAb2H7 [2] = details: apparent equilibrium dissociation constant; Method 1; peptide immobilized on streptavidin chip, 2H7-IgG injected
# Protocol: In the first method, affinities were measured with a Biacore 3000 on a strepavidin chip using either immobilized mono-biotinylated CD20-35 mer at 95 RU, or mono-biotinylated CD20-51 mer at 94 RU, where RU is a relative surface plasmon resonance unit based upon an arbitrary scale. The running buffer was HBS-EP flowing at 50 μL/min with 25 μl of 10 mM Glycine-HCl, and a pH of 2.5 for the regeneration. 2H7-IgG was injected, and the resulting data was fit to a 1:1 binding model with Biaevaluation 3.0 software (Biacore AB, Uppsala, Sweden) to get the apparent equilibrium dissociation constants.
# CD20 full Length = biological target: T1, CD20 full Length (Homo sapiens, UniProt P11836); test: ELISA using full-length CD20 molecule as the capture reagent; format: binding; details: N 8
# T1 construct: MKHQHQQ leader (N); octa-His (C); made in house; host or cells: E. coli
# T1 sequence (P11836 1-297): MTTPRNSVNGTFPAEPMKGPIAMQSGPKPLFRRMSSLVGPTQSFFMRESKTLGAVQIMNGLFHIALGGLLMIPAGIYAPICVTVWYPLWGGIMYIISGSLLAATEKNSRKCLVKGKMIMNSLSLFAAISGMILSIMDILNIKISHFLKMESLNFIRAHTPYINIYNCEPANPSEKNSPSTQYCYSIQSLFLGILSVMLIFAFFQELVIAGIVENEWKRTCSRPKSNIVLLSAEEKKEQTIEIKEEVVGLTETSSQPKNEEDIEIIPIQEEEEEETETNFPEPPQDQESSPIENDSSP
# Protocol: […] The plate was then washed for 3 times with the washing buffer (PBS with 0.05% polysorbate-20). Blocking buffer (200 μl) was added and the plate was sealed and incubated at room temperature for 2 hours with a gentle agitation. […] After incubating at room temperature for another hour with a gentle agitation, the plate was washed again with the washing buffer for six times and blotted dry. A volume of 100 μl of the detection agent diluted with the detection agent diluent was added and the plate was sealed and incubated at room temperature for one hour with a gentle agitation. The plate was then washed for another six times and blotted dry before the addition of 100 μl of an equal volume of TMB and H2O2. After incubating at room temperature for 15 minutes without agitation, the reaction was stopped by adding another 100 μl of 1 M H3PO4. The absorbance at 450 nm subtracted of that at 650 nm was read from the Spectra Max250 plate reader (Molecular Devices Corporation, Sunnyvale, Calif.), and the data were processed using SoftmaxPro (Molecular Devices Corporation, Sunnyvale, Calif.).
Substance,Kd (rhuMAb2H7 [1]) [nM],Kd (rhuMAb2H7 [2]) [µM],also measured
Biotin GKISHFLKMESLNFIRAHTPYINIYNCEPANPSEKNSPSTQYCYSIQSGGK (Biotin)-amide [Bis-CD20-51mer],110,,
Biotin-FIRAHTPYINIYNCEPANPSEKNSPSTQYCYSGGK(Biotin)-NH2 (cysteine pairing not given here) [Bis-CD20-35mer],500,,
Biotin-FIRAHTPYINIYNCEPANPSEKNSPSTQYCYSGGK-NH2 (cysteine pairing not given here) [Mono-CD20-35mer],,41.7,
Biotin-GKISHFLKMESLNFIRAHTPYINIYNCEPANPSEKNSPSTQYCYSIQSGGK-NH2 (cysteine pairing not given here) [Mono-CD20-51 mer],130,0.047,
"Rituxan: anti-CD20 antibody, generated as disclosed in U.S. Pat. No 5,736,137",,,"signal of 247 ng/ml of antibody (CD20 full Length; capture reagent 1 μg/mL in PBS, detection Goat anti-hu F(ab′)2 HRP): 0.065 O.D.450 nm; signal of 247 ng/ml of antibody (CD20 full Length; capture reagent 1 μg/mL in PBS, detection Sheep anti-hu IgG HRP (Monkey Adsorbed)): 0.012 O.D.450 nm; signal of 247 ng/ml of antibody (CD20 full Length; capture reagent 5 μg/mL in PBS, detection Goat anti-hu F(ab′)2 HRP): 0.166 O.D.450 nm; signal of 247 ng/ml of antibody (CD20 full Length; capture reagent 5 μg/mL in PBS, detection Sheep anti-hu IgG HRP (Monkey Adsorbed)): 0.023 O.D.450 nm"
